Test results: ChEMBL document CHEMBL3045118, “Synthesis and biological activities of new Mannich bases of chlorokojic acid derivatives” (Med Chem Res, 2011)
Converted amounts (≈) assume the structure as drawn. The source made the active and inactive calls. The rule behind the calls is not given here.

Assays:
Proteus mirabilis [1] = test: Antibacterial activity against Proteus mirabilis ATCC 7002 by microdilution method; format: functional
Acinetobacter baumannii [2] = test: Antibacterial activity against trimethoprim-sulfamethoxazole, cefepime-resistant Acinetobacter baumannii by microdilution method; format: functional
Klebsiella pneumoniae [3] = test: Antibacterial activity against Klebsiella pneumoniae RSKK 574 by microdilution method; format: functional
Proteus mirabilis [4] = test: Antibacterial activity against ESbetaL positive rimethoprim-sulfamethoxazole, cefepime, tazobactam-resistant Proteus mirabilis by microdilution method; format: functional
Bacillus subtilis [5] = test: Antibacterial activity against ceftriaxon-resistant Bacillus subtilis by microdilution method; format: functional
Candida albicans = test: Antifungal activity against Candida albicans ATCC 10231 by microdilution method; format: functional
Enterococcus faecalis [6] = test: Antibacterial activity against Enterococcus faecalis ATCC 29212 by microdilution method; format: functional
Acinetobacter baumannii [7] = test: Antibacterial activity against Acinetobacter baumannii RSKK 02026 by microdilution method; format: functional
Enterococcus faecalis [8] = test: Antibacterial activity against cephalosporins and beta-lactam-resistant Enterococcus faecalis by microdilution method; format: functional
Candida parapsilosis = test: Antifungal activity against Candida parapsilosis ATCC 22019 by microdilution method; format: functional
Staphylococcus aureus [9] = test: Antibacterial activity against oxacillin, gentamicin, aztreonam, trimethoprim-sulfamethoxazole-resistant Staphylococcus aureus by microdilution method; format: functional
Bacillus subtilis [10] = test: Antibacterial activity against Bacillus subtilis ATCC 6633 by microdilution method; format: functional
Staphylococcus aureus [11] = test: Antibacterial activity against Staphylococcus aureus ATCC 25923 by microdilution method; format: functional
Escherichia coli [12] = test: Antibacterial activity against Escherichia coli ATCC 35218 by microdilution method; format: functional
Klebsiella pneumoniae [13] = test: Antibacterial activity against ESbetaL positive trimethoprim-sulfamethoxazole, amoxicillin clavulonat, cefriaxon, cephepim, aztreonam-resistant Klebsiella pneumoniae by microdilution method; format: functional
Pseudomonas aeruginosa [14] = test: Antibacterial activity against trimethoprim-sulfamethoxazole, tazobactam-resistant Pseudomonas aeruginosa by microdilution method; format: functional
Escherichia coli [15] = test: Antibacterial activity against ESbetaL positive trimethoprim-sulfamethoxazole, cefepime, tazobactam-resistant Escherichia coli isolate by microdilution method; format: functional
Pseudomonas aeruginosa [16] = test: Antibacterial activity against Pseudomonas aeruginosa ATCC 10145 by microdilution method; format: functional
Human alphaherpesvirus 1 [17] = test: Antiviral activity against Human herpesvirus 1 infected bovine MDBK cells assessed as concentration required to cause maximum inhibition of virus-induced cytopathic effect; format: functional
Human alphaherpesvirus 1 [18] = test: Antiviral activity against Human herpesvirus 1 infected bovine MDBK cells assessed as concentration required to cause minimum inhibition of virus-induced cytopathic effect; format: functional
Human respirovirus 3 [19] = test: Antiviral activity against Human parainfluenza virus 3 infected African green monkey Vero cells assessed as concentration required to cause minimum inhibition of virus-induced cytopathic effect; format: functional
[20] = Cytotoxicity against Chlorocebus aethiops (African green monkey) Vero cells assessed as maximum non-toxic concentration; format: cell-based; conditions: chlorocebus sabaeus, read-out: MNCC
[21] = Cytotoxicity against Bos taurus (bovine) MDBK cells assessed as maximum non-toxic concentration; format: cell-based; conditions: cattle, read-out: MNCC
Human respirovirus 3 [22] = test: Antiviral activity against Human parainfluenza virus 3 infected African green monkey Vero cells assessed as concentration required to cause maximum inhibition of virus-induced cytopathic effect; format: functional

Molecule | MIC (Proteus mirabilis [1]) | MIC (Acinetobacter baumannii [2]) | MIC (Klebsiella pneumoniae [3]) | MIC (Proteus mirabilis [4]) | MIC (Bacillus subtilis [5]) | MIC (Candida albicans) | MIC (Enterococcus faecalis [6]) | MIC (Acinetobacter baumannii [7]) | MIC (Enterococcus faecalis [8]) | MIC (Candida parapsilosis) | MIC (Staphylococcus aureus [9]) | MIC (Bacillus subtilis [10]) | MIC (Staphylococcus aureus [11]) | MIC (Escherichia coli [12]) | MIC (Klebsiella pneumoniae [13]) | MIC (Pseudomonas aeruginosa [14]) | MIC (Escherichia coli [15]) | MIC (Pseudomonas aeruginosa [16]) | Activity (Human alphaherpesvirus 1 [17]) [µg/mL] | MIC (Candida parapsilosis; Lodderomyces parapsilosis) [µg/mL] | also measured
C[C@H]1COc2c(N3CCN(C)CC3)c(F)cc3c(=O)c(C(=O)O)cn1c23.C[C@H]1COc2c(N3CCN(C)CC3)c(F)cc3c(=O)c(C(=O)O)cn1c23.O [LEVOFLOXACIN] | < 0.12 µg/mL | 64 µg/mL | < 0.12 µg/mL | 1 µg/mL | inactive | inactive | 0.5 µg/mL | 0.12 µg/mL | 32 µg/mL | inactive | 128 µg/mL | inactive | 0.25 µg/mL |  |  |  |  |  |  |  | 
CN[C@H](CC(C)C)C(=O)N[C@H]1C(=O)N[C@@H](CC(N)=O)C(=O)N[C@H]2C(=O)N[C@H]3C(=O)N[C@H](C(=O)N[C@H](C(=O)O)c4cc(O)cc(O)c4-c4cc3ccc4O)[C@H](O)c3ccc(c(Cl)c3)Oc3cc2cc(c3O[C@@H]2O[C@H](CO)[C@@H](O)[C@H](O)[C@H]2O[C@H]2C[C@](C)(N)[C@H](O)[C@H](C)O2)Oc2ccc(cc2Cl)[C@H]1O [VANCOMYCIN] | inactive | inactive | inactive | inactive | inactive | inactive | inactive | inactive | inactive | inactive |  | inactive | 0.12 µg/mL (≈ 0.0828 µM) | inactive | inactive | inactive | inactive | inactive |  |  | 
Nc1nc2c(ncn2COCCO)c(=O)[nH]1 [ACYCLOVIR] |  |  |  |  |  |  |  |  |  |  |  |  |  |  |  |  |  |  | 1.6 |  | Activity (Human alphaherpesvirus 1 [18]): <0.012 µg/mL
CC1(C)S[C@@H]2[C@H](NC(=O)[C@H](N)c3ccccc3)C(=O)N2[C@H]1C(=O)O [AMPICILLIN] | 2 µg/mL (≈ 5.72 µM) | > 128 µg/mL | 2 µg/mL (≈ 5.72 µM) | > 128 µg/mL | 0.5 µg/mL (≈ 1.43 µM) | inactive | 0.5 µg/mL (≈ 1.43 µM) | 2 µg/mL (≈ 5.72 µM) | > 128 µg/mL | inactive | > 128 µg/mL | 0.12 µg/mL (≈ 0.343 µM) | < 0.12 µg/mL |  | > 128 µg/mL | inactive | > 128 µg/mL | inactive |  |  | 
GENTAMICIN | inactive | inactive | inactive | inactive | inactive | inactive | inactive | inactive | inactive | inactive | inactive | inactive | inactive | inactive | inactive | inactive | inactive | inactive |  |  | 
O=c1cc(CCl)oc(CN2CCN(c3ccc(F)cc3)CC2)c1O | 16 µg/mL (≈ 45.4 µM) | 64 µg/mL (≈ 181 µM) | 16 µg/mL (≈ 45.4 µM) | 64 µg/mL | 32 µg/mL (≈ 90.7 µM) | 8 µg/mL (≈ 22.7 µM) | 16 µg/mL (≈ 45.4 µM) | 32 µg/mL (≈ 90.7 µM) | 32 µg/mL (≈ 90.7 µM) |  | 64 µg/mL (≈ 181 µM) | 16 µg/mL (≈ 45.4 µM) | 16 µg/mL (≈ 45.4 µM) | 16 µg/mL (≈ 45.4 µM) | 64 µg/mL (≈ 181 µM) | 64 µg/mL | 64 µg/mL | 32 µg/mL (≈ 90.7 µM) | 0.8 | 8 (≈ 22.7 µM) | Activity (Human respirovirus 3 [19]): 0.025 µg/mL; MNTC [20]: 1.6 µg/mL; MNTC [21]: 0.8 µg/mL; Activity (Human alphaherpesvirus 1 [18]): 0.05 µg/mL; Activity (Human respirovirus 3 [22]): 0.2 µg/mL
CCOC(=O)C1=C[C@@H](OC(CC)CC)[C@H](NC(C)=O)[C@@H](N)C1 [OSELTAMIVIR] |  |  |  |  |  |  |  |  |  |  |  |  |  |  |  |  |  |  |  |  | Activity (Human respirovirus 3 [19]): <0.012 µg/mL; Activity (Human respirovirus 3 [22]): 1.6 µg/mL
CC1COc2c(N3CCN(C)CC3)c(F)cc3c(=O)c(C(=O)O)cn1c23 (stereo not given) [OFLOXACIN] | < 0.12 µg/mL | 64 µg/mL (≈ 177 µM) | < 0.12 µg/mL | 1 µg/mL | inactive | inactive | 1 µg/mL (≈ 2.77 µM) | 0.12 µg/mL (≈ 0.332 µM) | 32 µg/mL (≈ 88.6 µM) | inactive | 64 µg/mL (≈ 177 µM) | inactive | 0.25 µg/mL (≈ 0.692 µM) |  |  |  |  |  |  |  | 
COc1cccc(N2CCN(Cc3oc(CCl)cc(=O)c3O)CC2)c1 | 32 µg/mL (≈ 87.7 µM) | 64 µg/mL (≈ 175 µM) | 32 µg/mL (≈ 87.7 µM) | 64 µg/mL | 32 µg/mL (≈ 87.7 µM) | 8 µg/mL (≈ 21.9 µM) | 64 µg/mL (≈ 175 µM) | 32 µg/mL (≈ 87.7 µM) | 128 µg/mL (≈ 351 µM) |  | 128 µg/mL (≈ 351 µM) | 16 µg/mL (≈ 43.9 µM) | 64 µg/mL (≈ 175 µM) | 32 µg/mL (≈ 87.7 µM) | 64 µg/mL (≈ 175 µM) | 64 µg/mL | 64 µg/mL | 32 µg/mL (≈ 87.7 µM) | 0.8 | 8 (≈ 21.9 µM) | Activity (Human respirovirus 3 [19]): 0.1 µg/mL; MNTC [20]: 1.6 µg/mL; MNTC [21]: 0.8 µg/mL; Activity (Human alphaherpesvirus 1 [18]): 0.2 µg/mL; Activity (Human respirovirus 3 [22]): 0.4 µg/mL
O=c1cc(CCl)oc(CN2CCN(c3ccc(C(F)(F)F)cc3)CC2)c1O | 16 µg/mL (≈ 39.7 µM) | 64 µg/mL (≈ 159 µM) | 32 µg/mL (≈ 79.4 µM) | 64 µg/mL | 64 µg/mL (≈ 159 µM) | 8 µg/mL (≈ 19.9 µM) | 8 µg/mL (≈ 19.9 µM) | 16 µg/mL (≈ 39.7 µM) | 32 µg/mL (≈ 79.4 µM) |  | 64 µg/mL (≈ 159 µM) | 8 µg/mL (≈ 19.9 µM) | 16 µg/mL (≈ 39.7 µM) | 16 µg/mL (≈ 39.7 µM) | 64 µg/mL (≈ 159 µM) | 64 µg/mL | 64 µg/mL | 16 µg/mL (≈ 39.7 µM) | 0.8 | 8 (≈ 19.9 µM) | Activity (Human respirovirus 3 [19]): 0.025 µg/mL; MNTC [20]: 0.4 µg/mL; MNTC [21]: 0.8 µg/mL; Activity (Human alphaherpesvirus 1 [18]): 0.05 µg/mL; Activity (Human respirovirus 3 [22]): 0.4 µg/mL
OC(Cn1cncn1)(Cn1cncn1)c1ccc(F)cc1F [FLUCONAZOLE] |  |  |  |  | inactive | 2 µg/mL (≈ 6.53 µM) | inactive |  | inactive |  | inactive | inactive | inactive |  |  |  |  |  |  | 4 (≈ 13.1 µM) | 
CC(=O)N1CCN(c2ccc(OCC3COC(Cn4ccnc4)(c4ccc(Cl)cc4Cl)O3)cc2)CC1 (stereo not given) [KETOCONAZOLE] |  |  |  |  | inactive | 1 µg/mL (≈ 1.88 µM) | inactive |  | inactive |  | inactive | inactive | inactive |  |  |  |  |  |  | 1 (≈ 1.88 µM) | 
